According to the supplement of paper PMC10307832:

Tests used:
Assay in all cases: relative viability (nuclei count vs DMSO), 5 days (fraction); higher = more cells survive
A549 = tested on: A549
Method in brief: (§1)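 Relative viability equals treated-well nuclei counts divided by vehicle-well nuclei counts. Counts came from 4× images of lung cancer cell lines grown in 1536-well plates for 5 days after pin-tool dosing on the day after seeding. Dosing used one drug alone or a fixed anchor-drug dose plus five library-drug doses (not always all listed) in √10 steps, and values are medians of duplicate plates.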

A-427 = tested on: A-427
Method in brief: as §1

NCI-H1299 = tested on: NCI-H1299
Method in brief: as §1

EBC-1 = tested on: EBC-1
Method in brief: as §1

HCC-44 = tested on: HCC-44
Method in brief: as §1

SW 1573 = tested on: SW 1573
Method in brief: as §1

NCI-H2023 = tested on: NCI-H2023
Method in brief: as §1

NCI-H1650 = tested on: NCI-H1650
Method in brief: as §1

Calu-6 = tested on: Calu-6
Method in brief: as §1

NCI-H1703 = tested on: NCI-H1703
Method in brief: as §1

RERF-LC-KJ = tested on: RERF-LC-KJ
Method in brief: as §1

IA-LM = tested on: IA-LM
Method in brief: as §1

NCI-H1993 = tested on: NCI-H1993
Method in brief: as §1

NCI-H1648 = tested on: NCI-H1648
Method in brief: as §1

`COCC1(CO)C(=O)C2CCN1CC2` (centres undefined) [PRIMA-1MET] + CC1(C)CCC(c2ccc(Cl)cc2)=C(CN2CCN(c3ccc(C(=O)NS(=O)(=O)c4ccc(N[C@H](CCN5CCOCC5)CSc5ccccc5)c(S(=O)(=O)C(F)(F)F)c4)cc3)CC2)C1 [Navitoclax] (partner 0.5 µM) showed a relative viability (A549; first compound 0.2 µM) of 1.35, a relative viability (A549; first compound 0.6325 µM) of 1.09 and a relative viability (A549; first compound 2 µM) of 1.23. It also gave a relative viability (A549; first compound 6.325 µM) of 1.16, a relative viability (A549; first compound 20 µM) of 1.08 and a relative viability (A-427; first compound 0.2 µM) of 0.884. For the same molecule, the relative viability (A-427; first compound 0.6325 µM) was 0.821, the relative viability (A-427; first compound 2 µM) was 0.961 and the relative viability (A-427; first compound 6.325 µM) was 0.968. For the same molecule, the relative viability (A-427; first compound 20 µM) was 1, the relative viability (NCI-H1299; first compound 0.2 µM) was 1.14 and the relative viability (NCI-H1299; first compound 0.6325 µM) was 1.04. The relative viability (NCI-H1299; first compound 2 µM) was 1.05, the relative viability (NCI-H1299; first compound 6.325 µM) was 1.11 and the relative viability (NCI-H1299; first compound 20 µM) was 1.04. It also gave a relative viability (EBC-1; first compound 0.2 µM) of 0.379, a relative viability (EBC-1; first compound 0.6325 µM) of 0.37 and a relative viability (EBC-1; first compound 2 µM) of 0.427. It also gave a relative viability (EBC-1; first compound 6.325 µM) of 0.416, a relative viability (EBC-1; first compound 20 µM) of 0.151 and a relative viability (HCC-44; first compound 0.2 µM) of 1.05. For the same molecule, the relative viability (HCC-44; first compound 0.6325 µM) was 0.689, the relative viability (HCC-44; first compound 2 µM) was 0.916 and the relative viability (HCC-44; first compound 6.325 µM) was 1.03. The relative viability (HCC-44; first compound 20 µM) was 0.931, the relative viability (SW 1573; first compound 0.2 µM) was 1.12 and the relative viability (SW 1573; first compound 0.6325 µM) was 0.614. The relative viability (SW 1573; first compound 2 µM) was 0.789, the relative viability (SW 1573; first compound 6.325 µM) was 0.0618 and the relative viability (SW 1573; first compound 20 µM) was 0.034. It also gave a relative viability (NCI-H2023; first compound 0.2 µM) of 1.04, a relative viability (NCI-H2023; first compound 0.6325 µM) of 0.999 and a relative viability (NCI-H2023; first compound 2 µM) of 0.992. For the same molecule, the relative viability (NCI-H2023; first compound 6.325 µM) was 1.07, the relative viability (NCI-H2023; first compound 20 µM) was 0.977 and the relative viability (NCI-H1650; first compound 0.2 µM) was 1.39. For the same molecule, the relative viability (NCI-H1650; first compound 0.6325 µM) was 1.14, the relative viability (NCI-H1650; first compound 2 µM) was 1.32 and the relative viability (NCI-H1650; first compound 6.325 µM) was 1.33. It also gave a relative viability (NCI-H1650; first compound 20 µM) of 0.888, a relative viability (Calu-6; first compound 0.2 µM) of 0.97 and a relative viability (Calu-6; first compound 0.6325 µM) of 0.823. For the same molecule, the relative viability (Calu-6; first compound 2 µM) was 0.845, the relative viability (Calu-6; first compound 6.325 µM) was 0.781 and the relative viability (Calu-6; first compound 20 µM) was 0.305. For the same molecule, the relative viability (NCI-H1703; first compound 0.2 µM) was 1.43, the relative viability (NCI-H1703; first compound 0.6325 µM) was 0.891 and the relative viability (NCI-H1703; first compound 2 µM) was 1.18. The relative viability (NCI-H1703; first compound 6.325 µM) was 1.21, the relative viability (NCI-H1703; first compound 20 µM) was 0.0405 and the relative viability (RERF-LC-KJ; first compound 0.2 µM) was 1.33. For the same molecule, the relative viability (RERF-LC-KJ; first compound 0.6325 µM) was 0.929, the relative viability (RERF-LC-KJ; first compound 2 µM) was 0.833 and the relative viability (RERF-LC-KJ; first compound 6.325 µM) was 0.837. For the same molecule, the relative viability (RERF-LC-KJ; first compound 20 µM) was 0.814, the relative viability (IA-LM; first compound 0.2 µM) was 0.657 and the relative viability (IA-LM; first compound 0.6325 µM) was 0.769. The relative viability (IA-LM; first compound 2 µM) was 0.714, the relative viability (IA-LM; first compound 6.325 µM) was 0.949 and the relative viability (IA-LM; first compound 20 µM) was 0.806. For the same molecule, the relative viability (NCI-H1993; first compound 0.2 µM) was 0.997, the relative viability (NCI-H1993; first compound 0.6325 µM) was 0.772 and the relative viability (NCI-H1993; first compound 2 µM) was 0.813. For the same molecule, the relative viability (NCI-H1993; first compound 6.325 µM) was 0.889 and the relative viability (NCI-H1993; first compound 20 µM) was 1.02.
For `COCC1(CO)C(=O)C2CCN1CC2` (centres undefined) [PRIMA-1MET] + CC(=O)Nc1cccc(-n2c(=O)n(C3CC3)c(=O)c3c(Nc4ccc(I)cc4F)n(C)c(=O)c(C)c32)c1 [Trametinib] (partner 0.02 µM), the relative viability (NCI-H1648; first compound 0.2 µM) was 0.396, the relative viability (NCI-H1648; first compound 2 µM) was 0.445 and the relative viability (NCI-H1648; first compound 20 µM) was 0.553. For the same molecule, the relative viability (A-427; first compound 0.2 µM) was 0.533, the relative viability (A-427; first compound 0.6325 µM) was 0.585 and the relative viability (A-427; first compound 2 µM) was 0.786. It also gave a relative viability (A-427; first compound 6.325 µM) of 0.692, a relative viability (A-427; first compound 20 µM) of 0.785 and a relative viability (HCC-44; first compound 0.2 µM) of 1.01. It also gave a relative viability (HCC-44; first compound 0.6325 µM) of 0.951, a relative viability (HCC-44; first compound 2 µM) of 1.12 and a relative viability (HCC-44; first compound 6.325 µM) of 1.07. It also gave a relative viability (HCC-44; first compound 20 µM) of 1.03, a relative viability (SW 1573; first compound 0.2 µM) of 0.604 and a relative viability (SW 1573; first compound 0.6325 µM) of 0.54. It also gave a relative viability (SW 1573; first compound 2 µM) of 0.409, a relative viability (SW 1573; first compound 6.325 µM) of 0.0772 and a relative viability (SW 1573; first compound 20 µM) of 0.024. For the same molecule, the relative viability (NCI-H2023; first compound 0.2 µM) was 0.681, the relative viability (NCI-H2023; first compound 0.6325 µM) was 0.556 and the relative viability (NCI-H2023; first compound 2 µM) was 0.603. For the same molecule, the relative viability (NCI-H2023; first compound 6.325 µM) was 0.711, the relative viability (NCI-H2023; first compound 20 µM) was 0.546 and the relative viability (NCI-H1650; first compound 0.2 µM) was 0.545. It also gave a relative viability (NCI-H1650; first compound 0.6325 µM) of 0.48, a relative viability (NCI-H1650; first compound 2 µM) of 0.636 and a relative viability (NCI-H1650; first compound 6.325 µM) of 0.595. For the same molecule, the relative viability (NCI-H1650; first compound 20 µM) was 0.0646, the relative viability (RERF-LC-KJ; first compound 0.2 µM) was 0.858 and the relative viability (RERF-LC-KJ; first compound 0.6325 µM) was 0.849. The relative viability (RERF-LC-KJ; first compound 2 µM) was 0.821, the relative viability (RERF-LC-KJ; first compound 6.325 µM) was 0.951 and the relative viability (RERF-LC-KJ; first compound 20 µM) was 0.826. The relative viability (NCI-H1993; first compound 0.2 µM) was 0.619, the relative viability (NCI-H1993; first compound 2 µM) was 0.588 and the relative viability (NCI-H1993; first compound 6.325 µM) was 0.534. The relative viability (NCI-H1993; first compound 20 µM) was 0.514.
`COCC1(CO)C(=O)C2CCN1CC2` (centres undefined) [PRIMA-1MET] + CC(=O)c1c(C)c2cnc(Nc3ccc(N4CCNCC4)cn3)nc2n(C2CCCC2)c1=O [Palbociclib] (partner 0.5 µM) gave a relative viability (NCI-H1648; first compound 0.2 µM) of 0.251, a relative viability (NCI-H1648; first compound 2 µM) of 0.283 and a relative viability (NCI-H1648; first compound 20 µM) of 0.283. The relative viability (A-427; first compound 0.2 µM) was 0.574, the relative viability (A-427; first compound 0.6325 µM) was 0.523 and the relative viability (A-427; first compound 2 µM) was 0.576. For the same molecule, the relative viability (A-427; first compound 6.325 µM) was 0.49, the relative viability (A-427; first compound 20 µM) was 0.525 and the relative viability (HCC-44; first compound 0.2 µM) was 1.02. It also gave a relative viability (HCC-44; first compound 0.6325 µM) of 0.873, a relative viability (HCC-44; first compound 2 µM) of 0.95 and a relative viability (HCC-44; first compound 6.325 µM) of 0.954. For the same molecule, the relative viability (HCC-44; first compound 20 µM) was 1.03, the relative viability (SW 1573; first compound 0.2 µM) was 0.456 and the relative viability (SW 1573; first compound 0.6325 µM) was 0.317. For the same molecule, the relative viability (SW 1573; first compound 2 µM) was 0.345, the relative viability (SW 1573; first compound 6.325 µM) was 0.0953 and the relative viability (SW 1573; first compound 20 µM) was 0.0194. For the same molecule, the relative viability (NCI-H2023; first compound 0.2 µM) was 0.352, the relative viability (NCI-H2023; first compound 0.6325 µM) was 0.379 and the relative viability (NCI-H2023; first compound 2 µM) was 0.422. It also gave a relative viability (NCI-H2023; first compound 6.325 µM) of 0.365, a relative viability (NCI-H2023; first compound 20 µM) of 0.295 and a relative viability (NCI-H1650; first compound 0.2 µM) of 0.322. The relative viability (NCI-H1650; first compound 0.6325 µM) was 0.331, the relative viability (NCI-H1650; first compound 2 µM) was 0.317 and the relative viability (NCI-H1650; first compound 6.325 µM) was 0.315. It also gave a relative viability (NCI-H1650; first compound 20 µM) of 0.0802, a relative viability (RERF-LC-KJ; first compound 0.2 µM) of 1.13 and a relative viability (RERF-LC-KJ; first compound 0.6325 µM) of 1.13. The relative viability (RERF-LC-KJ; first compound 2 µM) was 0.978, the relative viability (RERF-LC-KJ; first compound 6.325 µM) was 1.08 and the relative viability (RERF-LC-KJ; first compound 20 µM) was 1.04. For the same molecule, the relative viability (NCI-H1993; first compound 0.2 µM) was 0.668, the relative viability (NCI-H1993; first compound 2 µM) was 0.715 and the relative viability (NCI-H1993; first compound 6.325 µM) was 0.698. The relative viability (NCI-H1993; first compound 20 µM) was 0.703.
